Values after ≈ are worked out from the molar mass of the structure shown. Values joined by “and” are separate entries in the source; they are usually repeats but may differ in a detail not shown here. Equal values may be shown once. Read-outs that look alike come from different tables or passages of the source.
Assays:
[1] = tested on: C57BL/6 Diet Induced Obese (DIO) mice; assay: Oral (P.O.) administration study in DIO mice: animal fate (mortality) and clinical observations; settings: mouse, in vivo, 2 mg/kg
Method: Male C57BL/6 DIO mice were assigned to 12 groups, and doses of 2 mg/kg Celastrol (ERX1000-4), ERX1006, ERX1007, ERX1037, ERX1060, ERX1077, ERX1107, ERX1149, ERX1168, ERX1177, and Pristimerin were administered to Groups 2 through 12, respectively. Animals were dosed via oral gavage once daily for 10 days at a volume of 2 mL/kg. The vehicle control article was 1% methyl cellulose (400 cps) in citric acid and phosphate buffer.
Parameters assessed included mortality, clinical observations, body weights and food consumption and blood glucose evaluations.
All animals were anesthetized via carbon dioxide, sacrificed, and discarded without further evaluation on Day 11.

[2] = Compound solubility in PBS (pH 7.4), LC-MS/MS; settings: PBS (pH 7.4), pH 7.4, aqueous buffer, kinetic from dmso stock
Method: • Test concentration: 100 μM (1% of DMSO) • Test systems: PBS (pH 7.4) • Incubation condition: shaken (1000 rpm) for 1 h at room temperature • Sample size: Duplicates (n=2) • Bioanalytical method: LC-MS/MS

[3] = tested on: C57BL/6 Diet Induced Obese (DIO) mice; assay: Oral (P.O.) administration study in DIO mice: in vivo activity, body weights; set-up: species or system mouse; settings: for Body weight, Mean / change in vivo at 2 mg/kg: male; for change in vivo at 2 mg/kg: Mus musculus, po, read-out: Body weight, %-Diff; for Individual Body Weight: individual male animals
Description: The purpose of this study was to assess test articles in the Diet Induced Obese (DIO) mouse.
Male C57BL/6 Diet Induced Obese (DIO) mice were received from Taconic. Animals were acclimated to housing conditions for at least 1 week prior to vehicle acclimation dosing. Animals were acclimated to oral gavage dosing with vehicle once daily for Days 11 through 14 of the predose phase.
At initiation of dosing, animals were 21 to 22 weeks old, and their body weights ranged from 29.8 to 40.1 g.
Dose formulations were administered by oral gavage once daily for 10 days at a dose volume of 2 mL/kg. Doses were based on the most recently recorded scheduled body weight.
Body weights were recorded daily on Days 11 through 14 of the predose phase. Body weights were collected for all animals daily during the dosing phase prior to dosing.
Descriptive statistics (n, mean, standard error of the mean, standard deviation) were completed. Additionally, one-way analysis of variance followed by Dunnett's post-hoc test were performed on body weight (cumulative body weight change), glucose (glucose percent change), and food consumption (cumulative food consumption). Area under the curve (for body weight, cumulative body weight change, daily body weight change, and food consumption) was computed for treatment groups. An appropriate comparison test, such as one-way analysis of variance and Dunnett's, was performed on the group means for the area under the curve computations. Any additional statistical analysis and interpretation of the results were the responsibility of the sponsor.

[4] = Solubility (μM) Mean, Table 6-B, test concentration 100 μM (1% of DMSO), shaken (1000 rpm) 1 h at room temperature, n = 2
[5] = DIO mice, 2 mg/kg, phase DSNG, Day 7
[6] = DIO mice, 2 mg/kg, phase DSNG, Day 8
[7] = DIO mice, 2 mg/kg, phase DSNG, Day 9
[8] = DIO mice, 2 mg/kg, phase DSNG, Day 10
[9] = DIO mice, 2 mg/kg, phase DSNG, Day 11
[10] = Day 1, DSNG phase, 2 mg/kg, N=5
[11] = Day 2, DSNG phase, 2 mg/kg, N=5
[12] = Day 3, DSNG phase, 2 mg/kg, N=5
[13] = Day 4, DSNG phase, 2 mg/kg, N=5
[14] = Day 5, DSNG phase, 2 mg/kg, N=5
[15] = Day 6, DSNG phase, 2 mg/kg, N=5
[16] = 24 h, Day 1, DSNG phase, 2 mg/kg, difference of group mean
[17] = 48 h, Day 2, DSNG phase, 2 mg/kg, difference of group mean
[18] = 72 h, Day 3, DSNG phase, 2 mg/kg, difference of group mean
[19] = 96 h, Day 4, DSNG phase, 2 mg/kg, difference of group mean
[20] = 120 h, Day 5, DSNG phase, 2 mg/kg, difference of group mean
[21] = 144 h, Day 6, DSNG phase, 2 mg/kg, difference of group mean
[22] = 168 h, DIO mice, 2 mg/kg, phase DSNG, Day 7, difference of group mean from vehicle group 1
[23] = 192 h, DIO mice, 2 mg/kg, phase DSNG, Day 8, difference of group mean from vehicle group 1
[24] = 216 h, DIO mice, 2 mg/kg, phase DSNG, Day 9, difference of group mean from vehicle group 1
[25] = 240 h, DIO mice, 2 mg/kg, phase DSNG, Day 10, difference of group mean from vehicle group 1
[26] = 264 h, DIO mice, 2 mg/kg, phase DSNG, Day 11, difference of group mean from vehicle group 1

Row | SMILES | Individual Animal Fate: Fate Status [1] | solubility at 1 h [2, 4] | solubility at 1 h ([2]; Solubility (μM), Table 6-D) | Body weight, Mean [3, 5] | Body weight, Mean [3, 6] | Body weight, Mean [3, 7] | Body weight, Mean [3, 8] | Body weight, Mean [3, 9] | Body weight, Mean [3, 10] | Body weight, Mean [3, 11] | Body weight, Mean [3, 12] | Body weight, Mean [3, 13] | Body weight, Mean [3, 14] | Body weight, Mean [3, 15] | change in vivo at 2 mg/kg [3, 16] | change in vivo at 2 mg/kg [3, 17] | change in vivo at 2 mg/kg [3, 18] | change in vivo at 2 mg/kg [3, 19] | change in vivo at 2 mg/kg [3, 20] | change in vivo at 2 mg/kg [3, 21] | also measured
1 | CC1=C(O)C(=O)C=C2C1=CC=C1[C@@]2(C)CC[C@@]2(C)[C@@H]3C[C@](C)(CN(C)C)CC[C@]3(C)CC[C@]12C [ERX1060] | Scheduled Sacrifice | 1.11 µM (≈ 0.515 µg/mL) | 1.11 µM (≈ 0.515 µg/mL) | 33.8 g | 33.3 g | 33.1 g | 33.5 g | 34.4 g | 34.6 g | 34.1 g | 34.4 g | 34.1 g | 34.2 g | 34.4 g | 1% | -1% | 1% | 2% | 1% | 3% | change in vivo at 2 mg/kg [3, 22]: 1%; change in vivo at 2 mg/kg [3, 23]: -1%; change in vivo at 2 mg/kg [3, 24]: 0%; change in vivo at 2 mg/kg [3, 25]: 0%; change in vivo at 2 mg/kg [3, 26]: 1%; Individual Body Weight, PRED 11 ([3]; individual male DIO mouse of the 2 mg/kg group, pre-dose phase day 11 (baseline)): 36.2 g and 38.2 g and 35.9 g and 40.9 g and 38.9 g; Individual Body Weight, PRED 12 ([3]; individual male DIO mouse of the 2 mg/kg group, pre-dose phase day 12 (baseline)): 34.5 g and 36.6 g and 34.9 g and 41.2 g and 39.0 g; Individual Body Weight, PRED 13 ([3]; individual male DIO mouse of the 2 mg/kg group, pre-dose phase day 13 (baseline)): 33.2 g and 34.7 g and 33.5 g and 39.8 g and 37.1 g; Individual Body Weight, PRED 14 ([3]; individual male DIO mouse of the 2 mg/kg group, pre-dose phase day 14 (baseline)): 33.7 g and 35.1 g and 32.7 g and 40.6 g and 37.4 g; Individual Body Weight, DSNG 1 ([3]; individual male DIO mouse, 2 mg/kg, dosing phase day 1, 2 mg/kg): 32.9 g and 34.3 g and 31.3 g and 38.7 g and 35.6 g; Individual Body Weight, DSNG 2 ([3]; individual male DIO mouse, 2 mg/kg, dosing phase day 2, 2 mg/kg): 33.2 g and 34.1 g and 29.8 g and 38.2 g and 35.2 g
2 | CC1=C(O)C(=O)C=C2C1=CC=C1[C@@]2(C)CC[C@@]2(C)[C@@H]3C[C@](C)(N)CC[C@]3(C)CC[C@]12C [ERX1077] | Scheduled Sacrifice | 16.7 µM (≈ 7.04 µg/mL) | 16.7 µM (≈ 7.04 µg/mL) | 33.3 g | 33.7 g | 33.5 g | 33.8 g | 33.9 g | 34.4 g | 34.1 g | 34.0 g | 33.7 g | 33.7 g | 34.0 g | 0% | -1% | 0% | 1% | 0% | 1% | Individual Body Weight ([3]; 2 mg/kg, Phase Day DSNG 1): 31.5 g and 32.8 g and 34.5 g and 38.3 g and 34.9 g; Individual Body Weight ([3]; 2 mg/kg, Phase Day DSNG 2): 31.2 g and 32.5 g and 34.1 g and 38.4 g and 34.4 g; Individual Body Weight ([3]; 2 mg/kg, Phase Day PRED 11 (pre-dose baseline)): 32.6 g and 34.8 g and 36.1 g and 40.2 g and 38.0 g; Individual Body Weight ([3]; 2 mg/kg, Phase Day PRED 12 (pre-dose baseline)): 33.2 g and 34.0 g and 35.8 g and 40.4 g and 37.0 g; Individual Body Weight ([3]; 2 mg/kg, Phase Day PRED 13 (pre-dose baseline)): 31.6 g and 33.1 g and 35.6 g and 39.7 g and 36.9 g; Individual Body Weight ([3]; 2 mg/kg, Phase Day PRED 14 (pre-dose baseline)): 32.7 g and 33.6 g and 35.7 g and 40.6 g and 36.6 g; change in vivo at 2 mg/kg [3, 22]: -1%; change in vivo at 2 mg/kg [3, 23]: 0%; change in vivo at 2 mg/kg [3, 24]: 1%; change in vivo at 2 mg/kg [3, 25]: 1%; change in vivo at 2 mg/kg [3, 26]: -1%
